According to PMC9019100, “Development of NanoLuc-targeting protein degraders and a universal reporter system to benchmark tag-targeted degradation platforms” (Nature Communications, 2022):
“And” between values parts separate entries of the source, which are not always exact repeats. Equal entries are not always repeated. Where two headings read alike, the source gives them in different places.

Columns and labels:
[1] = molecular target: T1, Fibrillarin-FKBP^F36V (Homo sapiens, UniProt P62942, F37V); assay type: cell-based; conditions: 500 nM, 10 h
T1 construct: endogenous in cells; host or cells: 293T, CRISPR/PITCh knock-in at the FBL locus

[2] = tested on: MLKL^−/−CASP8^−/− HT29 cells expressing MLKL-NLuc and caspase-8-FKBP^F36V; conditions: TNF+SM
[3] = molecular target: T2, Halo-EGFP-NanoLuc-FKBP^F36V (H-E-N-F) fusion protein (UniProt P0A3G2+P62942+Q9GV45, A155T/A167V/A172T/A224E/A31E/A60N/A81I/C128F/C176G/D78G/E160K/E257K/F37V/F95D/H272N/I117V/K175M/K195N/K70R/L47V/L54V/L88M/L99Q/M102K/N193R/N227D/P142E/P291S/Q151K/Q38R/Q45L/S2A/S58T/T264A/V71I/Y165I/Y273L/Y87F); assay type: cell-based; design: expressed in transfected cells; host or cells: immortalized mouse dermal fibroblasts (iMDFs), ubiquitin promoter, constitutive; conditions: 500 nM
Target sequence in this assay (P0A3G2 other isoform, or with tags, fused parts or gaps with the stated changes): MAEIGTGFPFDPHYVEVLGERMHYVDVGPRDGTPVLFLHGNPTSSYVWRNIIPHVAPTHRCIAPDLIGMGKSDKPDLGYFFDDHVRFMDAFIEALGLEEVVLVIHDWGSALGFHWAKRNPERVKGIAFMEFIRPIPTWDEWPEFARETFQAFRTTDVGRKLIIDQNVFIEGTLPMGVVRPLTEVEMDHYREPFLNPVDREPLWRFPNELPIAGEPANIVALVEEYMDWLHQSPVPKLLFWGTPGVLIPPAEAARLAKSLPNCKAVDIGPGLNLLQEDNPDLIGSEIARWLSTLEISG
Target sequence in this assay (Q9GV45 other isoform, or with tags, fused parts or gaps with the stated changes): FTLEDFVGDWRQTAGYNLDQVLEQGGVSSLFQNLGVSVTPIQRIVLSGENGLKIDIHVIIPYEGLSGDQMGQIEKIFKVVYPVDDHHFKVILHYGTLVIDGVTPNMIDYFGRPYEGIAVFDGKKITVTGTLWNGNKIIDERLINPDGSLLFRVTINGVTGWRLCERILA
Target sequence in this assay (P62942 whole entry F37V, the tested form may be a part): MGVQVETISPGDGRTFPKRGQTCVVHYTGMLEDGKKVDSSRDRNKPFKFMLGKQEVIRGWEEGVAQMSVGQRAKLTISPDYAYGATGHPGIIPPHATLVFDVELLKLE

[4] = molecular target: T2, Halo-EGFP-NanoLuc-FKBP^F36V (H-E-N-F) fusion protein; assay type: cell-based; conditions: +dox; for Blank corrected (470-80) luminescence: single well replicates; for Blank corrected Raw Data (470-80): PROTAC 500nM, replicate wells
Target sequence in this assay (Q9GV45 other isoform, or with tags, fused parts or gaps with the stated changes): as the sequence (Q9GV45 other isoform, or with tags, fused parts or gaps with the stated changes) above
Target sequence in this assay (P0A3G2 other isoform, or with tags, fused parts or gaps with the stated changes): as the sequence (P0A3G2 other isoform, or with tags, fused parts or gaps with the stated changes) above
Target sequence in this assay (P62942 whole entry F37V, the tested form may be a part): as the sequence (P62942 whole entry F37V, the tested form may be a part) above

[5] = tested on: MLKL^−/− HT29 cells expressing untagged MLKL; assay type: cell-based; conditions: MLKL-/- + MLKL, TNF+911+zVAD, replicate columns
Experimental: Cell death was assessed by flow cytometric analysis of PI exclusion. […] Cell death was assessed by flow cytometric analysis of PI exclusion. […] Cell death was assessed by flow cytometric analysis of PI exclusion. e N = 4, f N = 3 independent experiments (symbols), EB represent mean ± SD. g Western from MLKL^−/−CASP8^−/− HT29 cells stably expressing the doxycycline-inducible C-terminal fusion protein, MLKL-NanoLuc (MLKL-NLuc) and constitutively expressing the C-terminal fusion protein caspase-8-FKBP^F36V. […] Cell death was assessed using an IncuCyte and Cytotox-Red uptake. N = 3 independent experiments, one representative experiment shown, EB represent mean ± SD.
Degrader compounds or a DMSO vehicle control were added for 5 h, as stated in the Fig. legends. Cells were detached using Trypsin-EDTA (Merck) and resuspended in cell supernatants containing 10 μg/mL propidium iodide (PI). PI exclusion analysis was performed using an LSR II flow cytometer (Becton Dickinson, NJ) with 10,000 single-cell events per sample. Flow cytometry data were analysed using WEASEL version 2.7 software (Frank Battye).

[6] = tested on: wild-type HT29 cells; experiment: Necroptosis assay (PI exclusion, flow cytometry), wild-type HT29 cells, TNF+SM+IDN; assay type: cell-based, human; conditions: sheet S5G
How it was run: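 HT29 cells were pretreated 5 h with 500 nM degrader or DMSO, then stimulated 24 h with TNF (100 ng/mL), Smac mimetic compound A (500 nM–1 µM) and emricasan (IDN, 5 µM). Cell death was scored by flow cytometry as PI uptake (10 μg/mL PI, 10,000 events/sample), N = 3 replicates.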

T1 sequence (P62942 whole entry F37V): as the sequence (P62942 whole entry F37V, the tested form may be a part) above

For `CC[C@H](C(=O)N1CCCC[C@H]1C(=O)O[C@H](CCc1ccc(OC)c(OC)c1)c1ccccc1OCC(=O)NCCCCCCC(=O)N[C@H](C(=O)N1C[C@H](O)C[C@H]1C(=O)N[C@@H](C)c1ccc(-c2scnc2C)cc1)C(C)(C)C)c1cc(OC)c(OC)c(OC)c1` [FV1], which “Dmax (densitometry)” value [1] is on record?
Its value is ~ 95.9%.

What about the “Cytotox-Red uptake (cell death), IncuCyte” value (shortened to “Cytotox-Red uptake”) ([2]; elapsed 0 h) of the same compound?
The value was 162.812.

And the “Cytotox-Red uptake” value ([2]; elapsed 0.5 h)?
Its value is 163.75.

What about the “Cytotox-Red uptake” value ([2]; elapsed 1 h) of the same compound?
Its value is 172.188.

What about the “Cytotox-Red uptake” value ([2]; elapsed 2 h) of the same compound?
The value was 261.562.

What about the “Cytotox-Red uptake” value ([2]; elapsed 3 h) of the same compound?
Its value is 541.625.

And the “Cytotox-Red uptake” value ([2]; elapsed 4 h)?
The value was 907.75.

And the “Cytotox-Red uptake” value ([2]; elapsed 5 h)?
Its value is 1277.

What about the “Cytotox-Red uptake” value ([2]; elapsed 6 h) of the same compound?
The value was 1576.88.

And the “Cytotox-Red uptake” value ([2]; elapsed 6.5 h)?
The value was 1701.5.

And the “Cytotox-Red uptake” value ([2]; elapsed 7 h)?
The value was 1872.81.

And the “Cytotox-Red uptake” value ([2]; elapsed 7.5 h)?
The value was 1974.44.

What about the “Cytotox-Red uptake” value ([2]; elapsed 8 h) of the same compound?
Its value is 2103.31.

What about the “Cytotox-Red uptake” value ([2]; elapsed 9 h) of the same compound?
The value was 2328.

And the “Cytotox-Red uptake” value ([2]; elapsed 9.5 h)?
The value was 2410.25.

What about the “Cytotox-Red uptake” value ([2]; elapsed 10 h) of the same compound?
Its value is 2505.44.

And the “Cytotox-Red uptake” value ([2]; elapsed 10.5 h)?
Its value is 2578.38.

And the “Cytotox-Red uptake” value ([2]; elapsed 11 h)?
The value was 2647.

What about the “Cytotox-Red uptake” value ([2]; elapsed 12 h) of the same compound?
The value was 2777.19.

And the “Cytotox-Red uptake” value ([2]; elapsed 13 h)?
Its value is 2864.25.

What about the “Cytotox-Red uptake” value ([2]; elapsed 13.5 h) of the same compound?
Its value is 3026.81.

What about the “Cytotox-Red uptake” value ([2]; elapsed 14 h) of the same compound?
The value was 2985.5.

What about the “Cytotox-Red uptake” value ([2]; elapsed 14.5 h) of the same compound?
The value was 2992.62.

And the “Cytotox-Red uptake” value ([2]; elapsed 15 h)?
The value was 3009.12.

What about the “Cytotox-Red uptake” value ([2]; elapsed 16 h) of the same compound?
The value was 3103.38.

And the “Cytotox-Red uptake” value ([2]; elapsed 17 h)?
The value was 3055.31.

And the “Cytotox-Red uptake” value ([2]; elapsed 18 h)?
Its value is 3042.38.

What about the “Cytotox-Red uptake” value ([2]; elapsed 19 h) of the same compound?
Its value is 3048.56.

And the “Cytotox-Red uptake” value ([2]; elapsed 19.5 h)?
The value was 3013.69.

What about the “time up to which degradation was seen, degrader left in the medium” value ([3]; 5, 24 or 48 h) of the same compound?
Its value is “up to 48 h”.

And the “time up to which degradation was maintained, degrader removed at 5 h” value ([3]; 24 or 48 h after removal)?
Its value is “up to 48 h”.

And the “Blank corrected (470-80) luminescence” value ([4]; 3.9nM PROTAC)?
Its value is 31936 and 32480 and 32608 and 31981.

What about the “Blank corrected (470-80) luminescence” value ([4]; 7.8nM PROTAC) of the same compound?
The value was 24693 and 21134 and 25624 and 20591.

What about the “Blank corrected (470-80) luminescence” value ([4]; 31.25nM PROTAC) of the same compound?
Its value is 9757 and 8948 and 8891 and 8313.

What about the “Blank corrected (470-80) luminescence” value ([4]; 62.5nM PROTAC) of the same compound?
The value was 5245 and 5647 and 5355 and 5575.

What about the “Blank corrected (470-80) luminescence” value ([4]; 250nM PROTAC) of the same compound?
Its value is 2257 and 3039 and 2286 and 2469.

What about the “Blank corrected (470-80) luminescence” value ([4]; 500nM PROTAC, 5h) of the same compound?
The value was 3865 and 3357 and 3449 and 3849.

What about the “Blank corrected (470-80) luminescence” value ([4]; 500nM PROTAC, 8h) of the same compound?
The value was 4070 and 3846 and 4184 and 2817.

And the “Blank corrected (470-80) luminescence” value ([4]; 500nM PROTAC, 24h)?
The value was 5571 and 3433 and 4739.

And the “Blank corrected (470-80) luminescence” value ([4]; 500nM PROTAC)?
Its value is 1404 and 1634 and 1510 and 1568.

And the “Blank corrected (470-80) luminescence” value ([4]; 1uM PROTAC)?
The value was 1692 and 1683 and 1666 and 1785.

And the “Blank corrected Raw Data (470-80)” value ([4]; DMSO (control) co-treatment)?
The value was 1481 and 2747 and 2028.

And the “Blank corrected Raw Data (470-80)” value ([4]; co-treatment with MG132 (10uM))?
Its value is 32421 and 46504 and 47437 and 52425.

What about the “TNF+911+zVAD (PI exclusion)” value ([5]; degrader 3.9nM) of the same compound?
The value was 5.8 and 7 and 7.6.

What about the “TNF+911+zVAD (PI exclusion)” value ([5]; degrader 7.8nM) of the same compound?
The value was 6.7 and 5.9 and 5.7.

What about the “TNF+911+zVAD (PI exclusion)” value ([5]; degrader 31.25nM) of the same compound?
The value was 5.8 and 6 and 5.7.

And the “TNF+911+zVAD (PI exclusion)” value ([5]; degrader 62.5nM)?
Its value is 6.1 and 6.6 and 5.2.

What about the “TNF+911+zVAD (PI exclusion)” value ([5]; degrader 250nM) of the same compound?
The value was 6.3 and 5.6 and 5.3.

What about the “TNF+911+zVAD (PI exclusion)” value ([5]; degrader 500nM) of the same compound?
Its value is 5.9 and 5.1 and 4.5.

What about the “TNF+911+zVAD (PI exclusion)” value ([5]; degrader 1000nM) of the same compound?
The value was 5.8 and 4.9 and 5.

And the “viable cells (PI exclusion)” value ([6]; TNF+SM+IDN)?
The value was 9.5 and 6.6 and 6.1.

And the “viable cells (PI exclusion)” value ([6]; Unt (no death stimulus))?
Its value is 76.3 and 74.4 and 69.6.
